According to patent US20230183243A1, “HETEROARYL DERIVATIVES AND PHARMACEUTICAL COMPOSITION COMPRISING SAME AS ACTIVE INGREDIENT” (VORONOI INC., priority 2019, published 2023):

Columns and labels:
MDA-MB-231 cells = assay: Inhibition of proliferation of triple-negative breast cancer cells, CellTiter-Glo; type: cell-based; conditions: Homo sapiens, 120 h; MDA-MB-231, cultured for 5 days
Method: Specifically, the following test was performed in order to evaluate the inhibitory activity of the compound according to the present invention against the cell proliferation in triple-negative breast cancer cells (TNBCs).
Cells were seeded in 180 μL of a culture broth at a density of 2,000 to 3,000 cells/well in a white clear bottom 96-well plate (Corning) according to the growth ability of each cell, and then cultured for 24 hours under conditions of 5% CO2 and 37° C. Thereafter, the compound was prepared by diluting a 10 mM stock solution three-fold with 100% DMSO at a total of 12 concentrations so that a peak concentration of the compound was in a range of 10 mM to 0.05 μM, and the diluted compound was then diluted in each cell culture medium so that a final concentration of the compound was in a range of 100 μM to 0.5 nM. 20 μL of a diluted solution diluted with a medium was added to the cell solution in which cells were seeded in the 96-well plate on the previous day so that a final concentration of the diluted solution was in a range of 10 μM to 0.05 nM. Each of the cells was cultured for 5 days. To check cell viability, a mixture provided in a CellTiter-Glo® Luminescent Cell Viability Assay Kit (Promega) was added to each of the cultured cell media, and cultured for another 10 minutes under a condition of 37° C. Then, a degree of luminescence (fluorescence) was measured. A degree of inhibition of the cell growth according to the treatment concentration of each of the compounds was calculated based on the fluorescence of the solvent control cells which were not treated with the compound.

TTK = target: T1, TTK (Homo sapiens, UniProt P33981); assay: TTK enzyme activity, ADP-Glo kinase assay; type: biochemical; parameters: purchased SignalChem T20-10G; conditions: purified human TTK, ATP 10 μM, 25° C., 2 hours
T1 sequence (P33981 1-857): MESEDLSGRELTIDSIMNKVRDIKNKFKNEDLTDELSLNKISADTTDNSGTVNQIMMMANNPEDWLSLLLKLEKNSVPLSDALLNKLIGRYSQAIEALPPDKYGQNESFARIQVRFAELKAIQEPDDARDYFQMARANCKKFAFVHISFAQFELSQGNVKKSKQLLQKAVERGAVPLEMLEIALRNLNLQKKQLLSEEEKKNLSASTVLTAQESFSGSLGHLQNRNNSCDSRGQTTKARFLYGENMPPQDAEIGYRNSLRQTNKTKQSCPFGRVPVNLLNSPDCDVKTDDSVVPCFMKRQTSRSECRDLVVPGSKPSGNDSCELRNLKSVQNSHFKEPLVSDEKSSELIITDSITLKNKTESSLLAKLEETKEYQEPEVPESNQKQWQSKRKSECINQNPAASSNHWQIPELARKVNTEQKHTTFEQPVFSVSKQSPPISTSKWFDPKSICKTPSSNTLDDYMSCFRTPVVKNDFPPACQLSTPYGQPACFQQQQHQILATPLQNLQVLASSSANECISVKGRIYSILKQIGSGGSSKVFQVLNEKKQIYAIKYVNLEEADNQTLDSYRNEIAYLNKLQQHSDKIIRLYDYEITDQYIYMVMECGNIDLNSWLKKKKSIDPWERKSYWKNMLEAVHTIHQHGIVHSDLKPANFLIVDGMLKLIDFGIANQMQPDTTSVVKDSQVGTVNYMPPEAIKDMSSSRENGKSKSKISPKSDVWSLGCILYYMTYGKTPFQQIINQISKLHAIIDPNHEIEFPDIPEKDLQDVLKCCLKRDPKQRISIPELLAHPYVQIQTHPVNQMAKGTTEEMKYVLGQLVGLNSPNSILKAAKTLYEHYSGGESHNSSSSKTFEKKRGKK
Method: To evaluate an inhibitory activity of the compound according to the present invention against TTK (MPS1), an experiment was performed as follows.
Each of the Example compounds was reacted with a purified human TTK (SignalChem #T20-10G) enzyme to evaluate an ability to inhibit an enzyme using a method as described below. A composition of 40 mM Tris-HCl (pH 7.4), 20 mM MgCl2, 0.5 mg/mL BSA, and 50 μM DTT was used as a reaction buffer, and all reactions of test substances were performed in the reaction buffer. […] In the test, purified ATP (10 μM) and an enzyme substrate (0.2 μg) were reacted with a human TTK (25 ng) enzyme at 25° C. for 2 hours, and the enzyme activity was determined using an in vitro ADP-Glo™ kinase assay (Promega). […] The degree of inhibition of the enzyme activity according to the treatment concentration of each of the compounds was calculated based on the fluorescence of the enzyme activity of the solvent control which was not treated with the compound.

Row | Structure (SMILES) | GI50 (MDA-MB-231 cells) [nM] | IC50 (TTK) [nM]
1 | CC[C@H](C)Nc1nc(Nc2ccc(-c3ccnn3C)cc2OC)nc2[nH]cc(C#N)c12 [Example 1, (S)-4-(sec-butylamino)-2-((2-methoxy-4-(1-methyl-1H-pyrazol-5-yl)phenyl)amino)-7H-pyrrolo[2,3-d] pyrimidine-5-carbonitrile 2,2,2-trifluoroacetate] | < 100 | < 50
2 | COc1cc(-c2ccn(C)n2)ccc1Nc1nc(NC2CCCC2)c2c(C#N)c[nH]c2n1 [Example 2, 4-(cyclopentylamino)-2-((2-methoxy-4-(1-methyl-1H-pyrazol-3-yl)phenyl)amino)-7H-pyrrolo[2,3-d] pyrimidine-5-carbonitrile] | < 100 | < 50
3 | COc1cc(-c2ccnn2C)ccc1Nc1nc(NC2CCCCC2)c2cc[nH]c2n1 [Example 4, N^4-cyclohexyl-N^2-(2-methoxy-4-(1-methyl-1H-pyrazol-5-yl)phenyl)-7H-pyrrolo[2,3-d] pyrimidine-2,4-diamine] | 100 to 1000 | –
4 | COc1cc(-c2ccnn2C)ccc1Nc1nc(NC2CCCCC2)c2c(Cl)c[nH]c2n1 [Example 5, 5-chloro-N^4-cyclohexyl-N^2-(2-methoxy-4-(1-methyl-1H-pyrazol-5-yl)phenyl)-7H-pyrrolo[2,3-d] pyrimidine-2,4-diamine] | > 1000 | –
5 | COc1cc(-c2ccnn2C)ccc1Nc1nc(NC2CCCCC2)c2c(C(F)(F)F)c[nH]c2n1 [Example 6, N^4-cyclohexyl-N^2-(2-methoxy-4-(1-methyl-1H-pyrazol-5-yl)phenyl)-5-(trifluoromethy1)-7H-pyrrolo[2,3-d] pyrimidine-2,4-diamine] | > 1000 | –
6 | COc1cc(-c2ccnn2C)ccc1Nc1nc(NCC2CCCC2)c2c(C#N)c[nH]c2n1 [Example 8, 4-((cyclopentylmethyl)amino)-2-((2-methoxy-4-(1-methyl-1H-pyrazol-5-yl)phenyl)amino)-7H-pyrrolo[2,3-d] pyrimidine-5-carbonitrile] | – | 50 to 200
7 | CNc1nc(Nc2ccc(-c3ccnn3C)cc2OC)nc2[nH]cc(C#N)c12 [Example 9, 2-((2-methoxy-4-(1-methyl-1H-pyrazol-5-yl)phenyl)amino)-4-(methylamino)-1H-pyrrolo[2,3-d] pyrimidine-5-carbonitrile] | > 1000 | < 50
8 | CC[C@@H](C)Nc1nc(Nc2ccc(-c3ccnn3C)cc2OC)nc2[nH]cc(C#N)c12 [Example 10, (R)4-(sec-butylamino)-2-((2-methoxy-4-(1-methyl-1H-pyrazol-5-yl)phenyl)amino)-7H-pyrrolo[2,3-d] pyrimidine-5-carbonitrile 2,2,2-trifluoroacetate] | < 100 | < 50
9 | CCCCNc1nc(Nc2ccc(-c3nncn3C)cc2OCC)nc2[nH]cc(C#N)c12 [Example 11, 4-(butylamino)-2-((2-ethoxy-4-(4-methyl-4H-1,2,4-triazol-3-yl)phenyl)amino)-7H-pyrrolo[2,3-d] pyrimidine-5-carbonitrile] | < 100 | < 50
10 | COc1cc(-c2ccnn2C)ccc1Nc1nc(NCC(C)(C)C)c2c(C#N)c[nH]c2n1 [Example 12, 2-((2-methoxy-4-(1-methyl-1H-pyrazol-5-yl)phenyl)amino)-4-(neopentylamino)-7H-pyrrolo[2,3-d] pyrimidine-5-carbonitrile] | > 1000 | < 50
11 | COCCNc1nc(Nc2ccc(-c3ccnn3C)cc2OC)nc2[nH]cc(C#N)c12 [Example 13] | – | < 50
12 | COc1cc(-n2cc(C)nc2C)ccc1Nc1nc(NC2CCCCC2)c2c(C#N)c[nH]c2n1 [Example 34, 4-(cyclohexylamino)-2-((4-(2,4-dimethyl-1H-imidazol-1-yl)-2-methoxyphenyl)amino)-7H-pyrrolo[2,3-d] pyrimidine-5-carbonitrile] | < 100 | –
13 | CCOc1cc(-c2ccnn2C)ccc1Nc1nc(NC2CCCCC2)c2c(C#N)c[nH]c2n1 [Example 36, 4-(cyclohexylamino)-2-((2-ethoxy-4-(1-methyl-1H-pyrazol-5-yl)phenyl)amino)-7H-pyrrolo[2,3-d] pyrimidine-5-carbonitrile] | < 100 | –
14 | Cn1nccc1-c1ccc(Nc2nc(NC3CCCCC3)c3c(C#N)c[nH]c3n2)cc1 [Example 37, 4-(cyclohexylamino)-2-((4-(1-methyl-1H-pyrazol-5-yl)phenyl)amino)-7H-pyrrolo[2,3-d] pyrimidine-5-carbonitrile] | < 100 | –
15 | COc1cc(-c2ccnn2C)ccc1Nc1nc(OC2CCCCC2)c2c(C#N)c[nH]c2n1 [Example 45, 4-(cyclohexyloxy)-2-((2-methoxy-4-(1-methyl-1H-pyrazol-5-yl)phenyl)amino)-7H-pyrrolo[2,3-d] pyrimidine-5-carbonitrile] | < 100 | –
16 | N#Cc1c[nH]c2nc(Nc3ccc(N4CCCC4=O)cc3)nc(NC3CCCCC3)c12 [Example 80, 4-(cyclohexylamino)-2-((4-(2-oxopyrrolidin-1-yl)phenyl)amino)-7H-pyrrolo[2,3-d] pyrimidine-5-carbonitrile] | < 100 | –

Continued, values first:

Row | GI50 (MDA-MB-231 cells) [nM] | IC50 (TTK) [nM] | Structure (SMILES)
17 | < 100 | < 50 | CCC(C)Nc1nc(Nc2ccc(N3CCCC3=O)cc2OC)nc2[nH]cc(C#N)c12 (stereo in doubt) [Example 68, (S)-4-(sec-butylamino)-2-((2-methoxy-4-(2-oxopyrrolidin-1-yl)phenyl)amino)-7H-pyrrolo[2,3-d] pyrimidine-5-carbonitrile]
18 | 100 to 1000 | < 50 | COc1cc(N2CCOC2=O)ccc1Nc1nc(NC2CCCCC2)c2c(C#N)c[nH]c2n1 [Example 3, 4-(cyclohexylamino)-2-((2-methoxy-4-(2-oxooxazolidin-3-yl)phenyl)amino)-7H-pyrrolo[2,3-d] pyrimidine-5-carbonitrile]
19 | – | < 50 | COc1cc(-c2ccnn2C)ccc1Nc1nc(NC2CCOCC2)c2c(C#N)c[nH]c2n1 [Example 15, 2-((2-methoxy-4-(1-methyl-1H-pyrazol-5-yl)phenyl)amino)-4-((tetrahydro-2H-pyran-4-yl)amino)-7H-pyrrolo[2,3-d] pyrimidine-5-carbonitrile]
20 | > 1000 | – | COc1cc(N2CCCC2=O)ccc1Nc1nc(NC2CCOCC2)c2c(C#N)c[nH]c2n1 [Example 74, 2-((2-methoxy-4-(2-oxopyrrolidin-1-yl)phenyl)amino)-4-((tetrahydro-2H-pyran-4-yl)amino)-7H-pyrrolo[2,3-d] pyrimidine-5-carbonitrile]
21 | 100 to 1000 | – | COc1cc(N2CCCC2=O)ccc1Nc1nc(NCC(C)(C)C)c2c(C#N)c[nH]c2n1 [Example 77, 2-((2-methoxy-4-(2-oxopyrrolidin-1-yl)phenyl)amino)-4-(neopentylamino)-7H-pyrrolo[2,3-d] pyrimidine-5-carbonitrile]
22 | 100 to 1000 | – | CCOc1cc(N2CCCC2=O)ccc1Nc1nc(NC2CCCCC2)c2c(C#N)c[nH]c2n1 [Example 78, 4-(cyclohexylamino)-2-((2-ethoxy-4-(2-oxopyrrolidin-1-yl)phenyl)amino)-7H-pyrrolo[2,3-d] pyrimidine-5-carbonitrile]
23 | < 100 | – | COc1cc(N2CCOCC2=O)ccc1Nc1nc(NC2CCCCC2)c2c(C#N)c[nH]c2n1 [Example 81, 4-(cyclohexylamino)-2-((2-methoxy-4-(3-oxomorpholino)phenyl)amino)-7H-pyrrolo[2,3-d] pyrimidine-5-carbonitrile]
